Values of other authors in patent publication US8426341B2, “Herbicide formulation” (priority 2005, dated 2013).

Settings: for pKas (single or first listed value): acid form / neutral form equilibrium, exemplary values; for pKas (second listed value): second value for compounds with more than one acidic hydrogen

Compound	pKas (single or first listed value)	pKas (second listed value)
O=C(O)CCCOc1ccc(Cl)cc1Cl [2,4-DB]	4.8	–
O=C(O)c1cc(Oc2ccc(C(F)(F)F)cc2Cl)ccc1[N+](=O)[O-] [Acifluorfen]	3.86	–
CC(C)N1C(=O)c2ccccc2NS1(=O)=O [Bentazon]	3.30	–
N#Cc1cc(Br)c(O)c(Br)c1 [Bromoxynil]	4.06	–
COc1c(Cl)ccc(Cl)c1C(=O)O [Dicamba, 3,6-dichloro-O-anisic acid]	1.87	–
CC(Oc1ccc(Oc2ccc(Cl)cc2Cl)cc1)C(=O)O (centres unmarked) [Diclofop]	3.57	–
C[C@@H](Oc1ccc(Oc2ccc(C(F)(F)F)cn2)cc1)C(=O)O [Fluazifop-p]	2.98	–
CP(=O)(O)CCC(N)C(=O)O (centres unmarked) [Glufosinate]	2	2.9
CC(Oc1ccc(Oc2ncc(C(F)(F)F)cc2Cl)cc1)C(=O)O (centres unmarked) [Haloxyfop]	2.9	–
CC(C)C1(C)N=C(c2nc3ccccc3cc2C(=O)O)NC1=O (centres unmarked) [Imazaquin]	3.8	–
Nc1c(Cl)c(Cl)nc(C(=O)O)c1Cl [Picloram]	2.3	–
O=C(O)c1c(Cl)ccc2cc(Cl)cnc12 [Quinclorac]	4.34	–
C[C@@H](Oc1ccc(Oc2cnc3cc(Cl)ccc3n2)cc1)C(=O)O [Quizalofop-p]	1.25	–
O=C(O)COc1nc(Cl)c(Cl)cc1Cl [Triclopyr, 3,5,6-trichloro-2-pyridyloxyacetic acid]	2.68	3.97
Imazamethbenz	2.9	–
